Test [1] has as its target T1, MOR (mu opioid receptor) (Rattus norvegicus, UniProt P33535).
T1 construct: from tissue; host or cells: rat brain membranes
The experiment in a line: MOR radioligand binding assay with [3H]-DAMGO. To be noted: for K i DOR/K i MOR / K i KOR/K i MOR: selectivity ratio.

In test [2] the target is T2, KOR (kappa opioid receptor) (Cavia porcellus, UniProt P41144).
T2 construct: from tissue; host or cells: guinea pig brain membranes
To be noted: cited from earlier work.

The target in test [3] is T3, DOR (delta opioid receptor) (Rattus norvegicus, UniProt P33533). To be noted: cited from earlier work.
T3 sequence (P33533 whole entry): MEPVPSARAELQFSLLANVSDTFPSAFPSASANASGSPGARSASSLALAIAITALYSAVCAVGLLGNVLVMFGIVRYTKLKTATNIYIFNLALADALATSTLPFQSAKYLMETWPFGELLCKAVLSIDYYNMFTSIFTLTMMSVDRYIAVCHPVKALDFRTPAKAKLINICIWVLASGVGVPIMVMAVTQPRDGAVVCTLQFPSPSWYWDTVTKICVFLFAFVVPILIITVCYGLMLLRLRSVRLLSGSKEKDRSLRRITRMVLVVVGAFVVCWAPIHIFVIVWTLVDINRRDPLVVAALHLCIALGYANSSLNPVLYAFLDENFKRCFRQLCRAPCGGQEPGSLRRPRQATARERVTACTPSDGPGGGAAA
The target in test [4] is T1, MOR (mu opioid receptor). To be noted: cited from earlier work.
Test [5] addresses T3, DOR (delta opioid receptor). The experiment in a line: DOR radioligand binding assay with [3H]-Delthorphin.
Test [6] deals with T2, KOR (kappa opioid receptor). The experiment in a line: KOR radioligand binding assay with [3H]-U69,593. Set-up: species or system guinea pig.
Another test has as its target KOR. Set-up: method as in Pasquinucci et al. [2010]. As to conditions: Figure 1; ref Pasquinucci et al. [2010]; cited from earlier work.
Another test has as its target DOR. Set-up: method as in Pasquinucci et al. [2010]. As to conditions: Figure 1; ref Pasquinucci et al. [2010]; cited from earlier work.
The next test deals with MOR. Set-up: method as in Pasquinucci et al. [2010]. As to conditions: Figure 1; ref Pasquinucci et al. [2010]; cited from earlier work.
Where [7] appears, read: read-out: KOR Expected K i, experimental Ki as repeated in Table 2, previously synthesized compounds, ref Pasquinucci et al. ([2017]), Costanzo et al. ([2023]).
[8] abbreviates: read-out: DOR Expected K i, experimental Ki as repeated in Table 2, previously synthesized compounds, ref Pasquinucci et al. ([2017]), Costanzo et al. ([2023]).
Where [9] appears, read: read-out: MOR Expected K i, experimental Ki as repeated in Table 2, previously synthesized compounds, ref Pasquinucci et al. ([2017]), Costanzo et al. ([2023]).
Setting [10] is: K i (nM) ± SD KOR, [3H]-U69,593, mean ± SD of at least two experiments in duplicate.
The mark [11] stands for this setting: KOR Expected K i (nM), experimental Ki as repeated in Table 2.

Each structure is given as a SMILES string. Like-named read-outs stand apart in the source and are kept apart here.

T1 sequence (P33535 whole entry): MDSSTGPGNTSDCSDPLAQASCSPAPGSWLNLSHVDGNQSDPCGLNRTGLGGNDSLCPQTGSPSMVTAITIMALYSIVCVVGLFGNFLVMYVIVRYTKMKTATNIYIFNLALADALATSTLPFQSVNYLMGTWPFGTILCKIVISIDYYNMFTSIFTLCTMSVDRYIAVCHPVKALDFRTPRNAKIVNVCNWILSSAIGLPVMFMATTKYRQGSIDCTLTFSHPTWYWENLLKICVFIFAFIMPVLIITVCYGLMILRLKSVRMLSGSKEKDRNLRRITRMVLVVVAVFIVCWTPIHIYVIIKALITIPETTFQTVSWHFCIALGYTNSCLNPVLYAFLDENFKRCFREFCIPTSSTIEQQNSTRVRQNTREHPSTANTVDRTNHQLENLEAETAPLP
T2 sequence (P41144 whole entry): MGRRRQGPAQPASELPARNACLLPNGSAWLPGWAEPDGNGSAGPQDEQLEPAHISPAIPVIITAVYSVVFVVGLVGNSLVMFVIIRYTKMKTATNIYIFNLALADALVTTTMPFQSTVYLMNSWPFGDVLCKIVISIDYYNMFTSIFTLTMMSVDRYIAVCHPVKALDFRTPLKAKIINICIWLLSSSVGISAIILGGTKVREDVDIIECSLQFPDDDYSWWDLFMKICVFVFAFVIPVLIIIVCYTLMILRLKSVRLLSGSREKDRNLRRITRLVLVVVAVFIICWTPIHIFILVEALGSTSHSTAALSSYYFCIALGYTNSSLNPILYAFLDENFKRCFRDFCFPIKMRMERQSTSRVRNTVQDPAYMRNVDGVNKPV

Regarding `CCOC(=O)C(CCN1CCC2(C)c3cc(O)ccc3CC1C2C)c1ccccc1` (stereo not drawn) [Compound 1], the “K i DOR/K i MOR” value on MOR (mu opioid receptor) [1] was found to be 40.70. The “K i KOR/K i MOR” value at MOR (mu opioid receptor) [1] was found to be 12.00. Also, the Ki in test [2] (experimental Ki as repeated in Table 2, previously synthesized compounds, ref Pasquinucci et al. ([2017]), Costanzo et al. ([2023]), read-out: KOR Expected K i) was 130 ± 15 nM; in test [2] (footnote b, ref Pasquinucci et al. ([2017]), read-out: K i (nM) ± SD KOR), 130 ± 15 nM; in [3] (experimental Ki as repeated in Table 2, previously synthesized compounds, ref Pasquinucci et al. ([2017]), Costanzo et al. ([2023]), read-out: DOR Expected K i), 440 ± 22 nM; in test [3] (footnote b, ref Pasquinucci et al. ([2017]), read-out: K i (nM) ± SD DOR), 440 ± 22 nM; at MOR (mu opioid receptor) [4] (experimental Ki as repeated in Table 2, previously synthesized compounds, ref Pasquinucci et al. ([2017]), Costanzo et al. ([2023]), read-out: MOR Expected K i), 10.8 ± 2 nM; at MOR (mu opioid receptor) [4] (footnote b, ref Pasquinucci et al. ([2017]), read-out: K i (nM) ± SD MOR), 10.8 ± 2 nM.
As to `CC1C2Cc3ccc(O)cc3C1(C)CCN2CCC(C(=O)O)c1ccccc1` (stereo not drawn) [Compound 2], the “K i DOR/K i MOR” value on MOR (mu opioid receptor) [1] was 23.30. The Ki in test [2] (read-out: K i (nM) ± SD KOR, footnote b, ref Pasquinucci et al. ([2017])) was 3220 ± 60 nM; in test [2] (setting [7]) it was 3220 ± 60 nM; in test [3] (setting [8]) it was 275 ± 11 nM; in [3] (read-out: K i (nM) ± SD DOR, footnote b, ref Pasquinucci et al. ([2017])), 275 ± 11 nM; on MOR (mu opioid receptor) [4] (read-out: K i (nM) ± SD MOR, footnote b, ref Pasquinucci et al. ([2017])), 11.8 ± 2 nM; on MOR (mu opioid receptor) [4] (setting [9]), 11.8 ± 2 nM.
In the case of `COC(=O)CCN1CC[C@@]2(C)c3cc(O)ccc3C[C@@H]1[C@@H]2C` [Compound 3, Methyl 3‐[(2R,6R,11R)‐8‐hydroxy‐6,11‐dimethyl‐1,4,5, 6‐tetrahydro‐2,6‐methanobenzo[d]azocin‐3(2H]‐yl)propanoate], the Ki worked out at 19 ± 3 nM at MOR (mu opioid receptor) [1], 513 ± 30 nM in test [5], 60.7 ± 8 nM in [6] (setting [10]) and 60.7 ± 0.7 nM in test [6] (setting [11]). In addition, the “K i DOR/K i MOR” value on MOR (mu opioid receptor) [1] stood at 26.98. Besides, the “K i KOR/K i MOR” value on MOR (mu opioid receptor) [1] worked out at 3.19.
Turning to `COC(=O)CCCN1CC[C@@]2(C)c3cc(O)ccc3C[C@@H]1[C@@H]2C` [Compound 4, Methyl 4‐((2R,6R,11R)‐8‐hydroxy‐6,11‐dimethyl‐1,4,5,6‐tetrahydro‐2,6‐ methanobenzo[d]azocin‐3(2H)‐yl)butanoate], the Ki at MOR (mu opioid receptor) [1] was 67.8 ± 7 nM; in test [5], 218 ± 20 nM; in test [6] (setting [10]), 70.5 nM; in test [6] (setting [11]) it was 70.5 ± 0.76 nM. Besides, the “K i DOR/K i MOR” value on MOR (mu opioid receptor) [1] is on record as 3.21. Also, the “K i KOR/K i MOR” value at MOR (mu opioid receptor) [1] was found to be 1.04.
As for `C[C@H]1[C@H]2Cc3ccc(O)cc3[C@]1(C)CCN2CCC(=O)O` [Compound 5, 3‐((2R,6R,11R)‐8‐Hydroxy‐6,11‐dimethyl‐1,4,5,6‐tetrahydro‐2,6‐methanobenzo[d]azocin‐3(2H)‐yl)propanoic acid], the Ki is 383 ± 21 nM on MOR (mu opioid receptor) [1], 1100 ± 54 nM in test [5] and over 5000 nM in test [6] (setting [10]). The “K i DOR/K i MOR” value at MOR (mu opioid receptor) [1] is 2.88.
In the same order, the values of `C[C@H]1[C@H]2Cc3ccc(O)cc3[C@]1(C)CCN2CCCC(=O)O` [Compound 6, 4‐((2R,6R,11R)‐8‐Hydroxy‐6,11‐dimethyl‐1,4,5,6‐tetrahydro‐2,6‐methanobenzo[d]azocin‐3(2H)‐yl)butanoic acid] are 992 ± 55 nM, 1200 ± 64 nM, over 5000 nM and 1.21.
Turning to `C[C@H]1[C@H]2Cc3ccc(O)cc3[C@]1(C)CCN2CCC(=O)NO` [Compound 7, N‐Hydroxy‐3‐((2R,6R,11R)‐8‐hydroxy‐6,11‐dimethyl‐1,4,5,6‐tetrahydro‐2,6‐methanobenzo[d]azocin‐3(2H)‐yl)propanamide], the values for the Ki (at MOR (mu opioid receptor) [1]; in test [5]; in test [6] (setting [10])) were 30.8 ± 2 nM, 335 ± 19 nM and over 5000 nM, respectively. On MOR (mu opioid receptor) [1], the “K i DOR/K i MOR” value came to 10.89.
`C[C@H]1[C@H]2Cc3ccc(O)cc3[C@]1(C)CCN2CCCC(=O)NO` [Compound 8, N‐Hydroxy‐4‐((2R,6R,11R)‐8‐hydroxy‐6,11‐dimethyl‐1,4,5,6‐tetrahydro‐2,6‐methanobenzo[d]azocin‐3(2H)‐yl)butanamide]: the results for the Ki (on MOR (mu opioid receptor) [1]; in test [5]; in test [6] (setting [10])) were 42.2 ± 3 nM, 1300 ± 80 nM and over 5000 nM, respectively. For the same compound, on MOR (mu opioid receptor) [1], the “K i DOR/K i MOR” value is listed as 30.83.
`CC1C2Cc3ccc(O)cc3C1(C)CCN2CCC(=O)Nc1ccccc1` (stereo not drawn) [LP1]: the Ki on KOR is 110 nM; at DOR, 29.1 nM; at MOR it was 0.83 nM.
On to `COC(CN1CCC2(C)c3cc(O)ccc3CC1C2C)c1ccccc1` (stereo not drawn) [LP2], for which, on MOR (mu opioid receptor) [1], the “K i DOR/K i MOR” value was 6.11. The “K i KOR/K i MOR” value at MOR (mu opioid receptor) [1] was found to be 14.10. The Ki in test [2] (read-out: K i (nM) ± SD KOR, footnote c, ref Costanzo et al. ([2023])) was 15.2 ± 0.8 nM; in [2] (setting [7]), 15.2 ± 0.8 nM; in test [3] (setting [8]), 6.61 ± 0.6 nM; in test [3] (read-out: K i (nM) ± SD DOR, footnote c, ref Costanzo et al. ([2023])), 6.61 ± 0.6 nM; on MOR (mu opioid receptor) [4] (read-out: K i (nM) ± SD MOR, footnote c, ref Costanzo et al. ([2023])), 1.08 ± 0.1 nM; at MOR (mu opioid receptor) [4] (setting [9]) it was 1.08 ± 0.1 nM.
